Data taken from patent US9683014B2, “Dipeptide mimetics of NGF and BDNF neurotrophins” (UCHREZHDENIE ROSSIISKOI AKADEMII MEDITSYNSKIKH NAUK …, priority 2009, dated 2017).
Where two headings read alike, the source gives them in different places. Marks after values point to notes of the source that are not given here.

Legend:
[1] = system: rats with ischemic cerebral infarction; settings: 7 days after surgery; 1 mg/kg i.p. x3
[2] = system: rats with photothrombosis of the prefrontal cortex
Description: Male outbred rats weighing 180-200 g were used.
Experimental stages: surgery for photothrombosis, evaluation of motor activity (before and at 9 days after photothrombosis); PAR conditioning and the retention test at 9 days after photothrombosis; animal sacrifice, excision and fixation of the brain; morphologic examination and ischemic zone volume calculation.
(§1) The test substance was administered intraperitoneally at a dose of 1 mg/kg using the following regimen: at 1 h after surgery, at 24 h after the first administration, at 4 days and 6 days after the first administration.
PAR conditioning was performed according to the following protocol: The latency time (LT) was defined as the time between the start of testing and the moment of crossing the hole dividing the light and dark compartments. On day 1 the rat was placed in the light compartment (a 100 W light bulb) and, having explored it for a certain time (LT to learning), crossed into the dark compartment. Thereafter the door leading to this compartment was closed, and the rat was allowed to stay there for 5 min. One hour later the procedure was repeated by taking the rat out of the dark compartment. On the next day this procedure was repeated twice with a 1 h interval. During the second visit by the rat to the dark compartment the door was closed and electric current was passed through the metal bars in the floor (1.3 mA, 50 Hz, 5 sec). The PAR conditioning was considered established when the LT was at least 300 sec. Animals with lower LT values were excluded from the experiments.
(§2) A bilateral focal ischemic infarction of the prefrontal cortex of the rat brain (the Fr1 and Fr2 fields according to the atlas of Paxinos and Watson, 1986) was produced by the photoinduced thrombosis method (Watson et al., 1985). Animals were anesthetized with chloral hydrate (300 mg/kg i.p.). The photosensitive dye Bengal red (Sigma Chemical Co.) was injected into the jugular vein (3% solution, 40 mg/kg). The animal's head was clamped in the stereotaxis device, and the periosteum was removed after a longitudinal incision of the skin.
(§3) A light guide (the output light beam diameter 3 mm) was placed at a distance of 1 mm from the skull surface using the following coordinates: 2.00 mm rostral of the bregma and 2.00 mm lateral of the sagittal suture. Cold light illumination (a xenon lamp source, 25 V, 250 W) was carried out for 15 min at either side. Sham-operated animals were subjected to the same procedure except for the Bengal red injection. To assess their functional status, the animals were evaluated for their motor activity (MA) in a RODEO-1 automatic unit with an observation time of 5 min. The MA was analyzed before and at 9 days after the photothrombosis of the prefrontal cortex.

[3] = system: rats with ischemic cerebral infarction
[4] = system: rats with photothrombosis of the prefrontal cortex; settings: 1 mg/kg i.p.
Description: as §1, §2
as §3, with “Sham-operated animals were subjected to the same procedure except for the Bengal red injection.” left out

rats = system: rats
Description: The experiments were conducted on white male outbred rats weighing 250-280 g. Haloperidol (1.0 mg/kg i.p.), a D1/D2 dopamine receptor blocker, was used to induce catalepsy. The intensity of catalepsy was assessed by measuring the time during which the animal maintained an assumed posture. The measurements were performed 60 minutes after the haloperidol injection. The test compound was administered intraperitoneally at selected doses (0.01, 0.1, 1.0 and 5.0 mg/kg) 24 hours prior to haloperidol. Control animals were treated with an equivalent volume of distilled water. Statistical data treatment was carried out using the exact Fisher test.

## NCCCC[C@H](NC(=O)[C@H](CCC(=O)O)NC(=O)CCC(=O)O)C(=O)NCCCCCCNC(=O)[C@H](CCCCN)NC(=O)[C@H](CCC(=O)O)NC(=O)CCC(=O)O [GK-2, bis-(N-monosuccinyl-glutamyl-lysine) hexamethylenediamide]
[1]
  reduction in use of the affected limb and simultaneous use of 2 forelimbs: much less pronounced
[2]; 1 mg/kg i.p.
  retention of the PAR: 100%
[2]; 1 mg/kg i.p. at 1 h, 24 h, 4 and 6 days, at 8 days after photothrombosis, saline 20-105, sham 300
  latency time of PAR, individual rats: 300 s
[2]; 1 mg/kg i.p., n = 9, saline 59.2, sham 300
  latency time of PAR, group mean: 300 s
[2]; 1 mg/kg i.p., photothrombosis alone 59.2 sec
  latency time of PAR: at least 300 sec
[3]; 1 mg/kg i.p. at 1, 24, 48 h post-ischemia, NMRT day 7, control group 46%
  animals with swelling of the affected hemisphere: 9%
[3]; 1 mg/kg i.p. at 1, 24, 48 h post-ischemia, control also 3
  mortality rate: 3 animals
[3]; 1 mg/kg i.p. x3, NMRT day 7, n=12, saline control 266±20
  ischemic lesion volume: 222±16 mm^3
[3]; 1 mg/kg i.p. x3, versus saline control
  reduction of lesion volume: 16.5%
[4]; FIG. 2.4
  lesion volume (left and right hemispheres, per rat, mean): reduced
[4]; PER=(V0−Vs)/V0×100%
  protection effectiveness rate (PER): 61%
rats; 0.01 mg/kg i.p. 24 h prior to haloperidol 1.0 mg/kg i.p., measured 60 min after haloperidol
  Intensity of catalepsy (% of control): 14* % of control
rats; 0.1 mg/kg i.p. 24 h prior to haloperidol
  Intensity of catalepsy (% of control): 98 % of control
rats; 1.0 mg/kg i.p. 24 h prior to haloperidol
  Intensity of catalepsy (% of control): 25* % of control
rats; 5.0 mg/kg i.p. 24 h prior to haloperidol
  Intensity of catalepsy (% of control): 13* % of control
